Results taken from PubChem BioAssay (NCI).
Several values for one entry are separate records, joined by “and”; a condition that tells them apart may be missing. Equal values may be shown once.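 Following 48 hours of exposure in 96-well plates, responses at five concentrations were used to interpolate endpoints linearly. Here, GI50 denotes the concentration required for 50% inhibition of growth. TGI: total growth inhibition.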

The molecules below were run on HCC-2998 colon (assay: NCI-60 cell line screen, 48 h).

| SMILES | GI50 | TGI |
| --- | --- | --- |
| CCN(CC)c1sc(N(CC)CC)c2c1SSSSS2 | 0.935 µM | 2.4 µM |
| O=C(c1cccc(O)c1O)c1cn(Cc2ccc(F)cc2)c2cccc(O)c12 | 1.55 µM | 11.4 µM |
| Nc1ncc(-c2cnn(CCO)c2)c2scc(-c3ccc(NC(=O)Nc4cccc(F)c4)cc3)c12 | 1.39 µM | 6.79 µM |
| COc1cc(C2=NN(C(C)=O)C(c3ccc(OC(C)=O)cc3OC(C)=O)O2)c(OC(C)=O)c2ccccc12 (centres undefined) | 1.03 µM | 27.9 µM |
| COc1cc(OC(=O)c2c(O)cc(O)c(O)c2C)cc(C)c1C(=O)Oc1cc(C)c(C(=O)O)c(O)c1 | – | > 100 µM |
| COC(=O)Nc1nc2ccc(Oc3ccc(NC(=O)Nc4ccccc4)cc3)cc2[nH]1 | 0.458 µM | > 17.7 µM |
| CN(C)P(=O)(/C(N)=N/Nc1ccc([N+](=O)[O-])cc1)N(C)C | – | > 100 µM |
| CC(=O)OC1CC(O)C23COC(O)C1(C)C2CC(O)C1(C)C3C(=O)C(O)C2(C)C(c3ccoc3)CC3OC321 (centres undefined) | 0.42 µM | > 100 µM |
| Cn1cc(C(=O)c2ccccc2)ccc1=O | – | > 100 µM |
| CCCCCCCC(CC(=O)NC(CO)C(=O)NC(CO)CC(C)C)OC(=O)CC(CCCCCCC)OC(=O)CC(CCCCCCC)OC1OC(C)C(O)C(OC2OC(C)C(O)C(OC(C)=O)C2O)C1O (centres undefined) | – | 23.2 µM |
| COc1ccc(C(C)c2cc3c(cc2OC)OCO3)cc1 (centres undefined) | – | 3.62 µM |
| CCc1[nH]c(=O)nc(N)c1-c1ccc(N2CCCCC2)c([N+](=O)[O-])c1 | – | > 100 µM |
| CCC#CC[C@H]1C/C=C2/C(=O)C=C[C@@H]2C/C=C\CCCC(=O)O1 | 0.991 µM | 1.8 µM |
| CCN(CC)CCN1CC(O)=C(c2nc(-c3ccc(Cl)cc3)cs2)C1=N | 1.95 µM | 3.91 µM |

Each molecule was assayed on MOLT-4 leukemia (assay: NCI-60 cell line screen, 48 h).

| SMILES | TGI | GI50 |
| --- | --- | --- |
| COc1ccc2c(c1)C=C([N+](=O)[O-])C(C1OC(C)(C)OC1C1COC(C)(C)O1)O2 (centres undefined) | 6.51 µM | – |
| CC(C)(C)OC(=O)Cc1ccc2c(ccn2Cc2ccccc2)c1 | > 100 µM | – |
| NC(N)=NCCCn1c2c(c3ccccc3c1=O)C(=O)c1ccccc1-2 | 18.8 µM | 2.65 µM |
| CCC1(O)C(=O)OCc2c1cc1n(c2=O)Cc2cc3ccc(C=O)cc3nc2-1 (centres undefined) | 1.78 µM and 1.05 µM | 0.209 µM |
| CC(C)N(C(=O)C12CC3CC(CC(C3)C1)C2)C(C)C | > 50 µM | – |
| CC1(C)C2CC(O)C1(C)CC2=O (centres undefined) | > 100 µM | – |
| COc1ccc2c(c1)C(=O)c1c-2n(CCCn2ccnc2)c(=O)c2ccccc12 | > 100 µM | 0.136 µM |
| COc1cc2oc(-c3ccc(O)cc3)cc(=O)c2c(OC)c1OC | > 100 µM | – |
| N#Cc1nc(C2OC(COC(=O)c3ccccc3)C(OC(=O)c3ccccc3)C2OC(=O)c2ccccc2)oc1N (centres undefined) | > 100 µM | – |
| CC/C=C\C[C@@H]1C/C=C2/C(=O)C=C[C@H]2C/C=C\CCCC(=O)O1 | 2.71 µM | 0.551 µM |
| Cc1ccc(S(=O)(=O)n2c(-c3ccccc3)c(-c3ccccc3)c3ccccc32)cc1 | > 100 µM | – |
| O=C(N/N=C/c1cccc(O)c1O)c1ccccc1 | > 39.2 µM | 0.362 µM |
| CN/N=C(/CCN1CCCC1)CC(c1ccccc1)c1c(O)c2ccccc2oc1=O (centres undefined) | > 100 µM | – |
| COc1ccc2c(c1)CCC1C3(CCCC21C)OCCO3 (centres undefined) | 53.5 µM | – |
| COc1ccc(OC)c(/C=C/C(=O)N/N=C/c2ccc(Cl)cc2)c1 | > 100 µM | 0.213 µM |
| COc1ccc(C(=O)c2cc(C)c(OC)c(C)c2)c(OC)c1N(C(=O)C(Cl)Cl)C(=O)C(Cl)Cl | > 100 µM | 0.122 µM |

| SMILES | TGI | GI50 |
| --- | --- | --- |
| Cc1ccc(N(C(=O)CC(=O)NN)C(=O)c2ccccc2Cl)cc1 | > 100 µM | – |
| CCN(CC)c1sc(N(CC)CC)c2c1SSSSS2 | > 100 µM | 0.343 µM |
| O=C(c1cccc(O)c1O)c1cn(Cc2ccc(F)cc2)c2cccc(O)c12 | 10.3 µM | 0.84 µM |
| Nc1ncc(-c2cnn(CCO)c2)c2scc(-c3ccc(NC(=O)Nc4cccc(F)c4)cc3)c12 | 2.34 µM | < 0.0226 µM |
| COc1cc(C2=NN(C(C)=O)C(c3ccc(OC(C)=O)cc3OC(C)=O)O2)c(OC(C)=O)c2ccccc12 (centres undefined) | 8.5 µM | 0.44 µM |
| COc1cc(OC(=O)c2c(O)cc(O)c(O)c2C)cc(C)c1C(=O)Oc1cc(C)c(C(=O)O)c(O)c1 | > 100 µM | – |
| COC(=O)Nc1nc2ccc(Oc3ccc(NC(=O)Nc4ccccc4)cc3)cc2[nH]1 | > 10.3 µM | 0.184 µM |
| CN(C)P(=O)(/C(N)=N/Nc1ccc([N+](=O)[O-])cc1)N(C)C | > 100 µM | – |
| CC(=O)OC1CC(O)C23COC(O)C1(C)C2CC(O)C1(C)C3C(=O)C(O)C2(C)C(c3ccoc3)CC3OC321 (centres undefined) | 0.0127 µM | < 0.01 µM |
| Cn1cc(C(=O)c2ccccc2)ccc1=O | > 100 µM | – |
| CCCCCCCC(CC(=O)NC(CO)C(=O)NC(CO)CC(C)C)OC(=O)CC(CCCCCCC)OC(=O)CC(CCCCCCC)OC1OC(C)C(O)C(OC2OC(C)C(O)C(OC(C)=O)C2O)C1O (centres undefined) | 16.8 µM | – |
| COc1ccc(C(C)c2cc3c(cc2OC)OCO3)cc1 (centres undefined) | > 60.6 µM | – |
| CCc1[nH]c(=O)nc(N)c1-c1ccc(N2CCCCC2)c([N+](=O)[O-])c1 | > 100 µM | – |
| CCC#CC[C@H]1C/C=C2/C(=O)C=C[C@@H]2C/C=C\CCCC(=O)O1 | 3.96 µM | 1.24 µM |
| CCN(CC)CCN1CC(O)=C(c2nc(-c3ccc(Cl)cc3)cs2)C1=N | 4.42 µM | 1.87 µM |

These molecules were tested on A549 NSCLC (assay: NCI-60 cell line screen, 48 h).

| SMILES | TGI | GI50 |
| --- | --- | --- |
| COc1ccc2c(c1)C=C([N+](=O)[O-])C(C1OC(C)(C)OC1C1COC(C)(C)O1)O2 (centres undefined) | 41.9 µM | – |
| CC(C)(C)OC(=O)Cc1ccc2c(ccn2Cc2ccccc2)c1 | > 100 µM | – |
| NC(N)=NCCCn1c2c(c3ccccc3c1=O)C(=O)c1ccccc1-2 | > 100 µM | 27.1 µM |
| CCC1(O)C(=O)OCc2c1cc1n(c2=O)Cc2cc3ccc(C=O)cc3nc2-1 (centres undefined) | 50 µM and 18.8 µM | 7.43 µM |
| CC(C)N(C(=O)C12CC3CC(CC(C3)C1)C2)C(C)C | > 50 µM | – |
| CC1(C)C2CC(O)C1(C)CC2=O (centres undefined) | > 100 µM | – |
| COc1ccc2c(c1)C(=O)c1c-2n(CCCn2ccnc2)c(=O)c2ccccc12 | 4.66 µM | 0.511 µM |
| COc1cc2oc(-c3ccc(O)cc3)cc(=O)c2c(OC)c1OC | > 100 µM | – |
| N#Cc1nc(C2OC(COC(=O)c3ccccc3)C(OC(=O)c3ccccc3)C2OC(=O)c2ccccc2)oc1N (centres undefined) | > 100 µM | – |
| CC/C=C\C[C@@H]1C/C=C2/C(=O)C=C[C@H]2C/C=C\CCCC(=O)O1 | 2.2 µM | 0.526 µM |
| Cc1ccc(S(=O)(=O)n2c(-c3ccccc3)c(-c3ccccc3)c3ccccc32)cc1 | > 100 µM | – |
| O=C(N/N=C/c1cccc(O)c1O)c1ccccc1 | > 100 µM | 2.01 µM |
| CN/N=C(/CCN1CCCC1)CC(c1ccccc1)c1c(O)c2ccccc2oc1=O (centres undefined) | > 100 µM | – |
| COc1ccc2c(c1)CCC1C3(CCCC21C)OCCO3 (centres undefined) | 69.7 µM | – |
| COc1ccc(OC)c(/C=C/C(=O)N/N=C/c2ccc(Cl)cc2)c1 | > 100 µM | 0.242 µM |
| COc1ccc(C(=O)c2cc(C)c(OC)c(C)c2)c(OC)c1N(C(=O)C(Cl)Cl)C(=O)C(Cl)Cl | > 100 µM | 0.0804 µM |

| SMILES | TGI | GI50 |
| --- | --- | --- |
| Cc1ccc(N(C(=O)CC(=O)NN)C(=O)c2ccccc2Cl)cc1 | > 100 µM | – |
| CCN(CC)c1sc(N(CC)CC)c2c1SSSSS2 | 3.64 µM | 1.84 µM |
| O=C(c1cccc(O)c1O)c1cn(Cc2ccc(F)cc2)c2cccc(O)c12 | 16.7 µM | 3.31 µM |
| Nc1ncc(-c2cnn(CCO)c2)c2scc(-c3ccc(NC(=O)Nc4cccc(F)c4)cc3)c12 | 1.5 µM | 0.125 µM |
| COc1cc(C2=NN(C(C)=O)C(c3ccc(OC(C)=O)cc3OC(C)=O)O2)c(OC(C)=O)c2ccccc12 (centres undefined) | 28.4 µM | 1.57 µM |
| COc1cc(OC(=O)c2c(O)cc(O)c(O)c2C)cc(C)c1C(=O)Oc1cc(C)c(C(=O)O)c(O)c1 | > 100 µM | – |
| COC(=O)Nc1nc2ccc(Oc3ccc(NC(=O)Nc4ccccc4)cc3)cc2[nH]1 | 5.32 µM | 0.533 µM |
| CN(C)P(=O)(/C(N)=N/Nc1ccc([N+](=O)[O-])cc1)N(C)C | > 100 µM | – |
| CC(=O)OC1CC(O)C23COC(O)C1(C)C2CC(O)C1(C)C3C(=O)C(O)C2(C)C(c3ccoc3)CC3OC321 (centres undefined) | > 100 µM | 0.0674 µM |
| Cn1cc(C(=O)c2ccccc2)ccc1=O | > 100 µM | – |
| CCCCCCCC(CC(=O)NC(CO)C(=O)NC(CO)CC(C)C)OC(=O)CC(CCCCCCC)OC(=O)CC(CCCCCCC)OC1OC(C)C(O)C(OC2OC(C)C(O)C(OC(C)=O)C2O)C1O (centres undefined) | 25 µM | – |
| COc1ccc(C(C)c2cc3c(cc2OC)OCO3)cc1 (centres undefined) | > 100 µM | – |
| CCc1[nH]c(=O)nc(N)c1-c1ccc(N2CCCCC2)c([N+](=O)[O-])c1 | > 100 µM | – |
| CCC#CC[C@H]1C/C=C2/C(=O)C=C[C@@H]2C/C=C\CCCC(=O)O1 | 4.03 µM | 1.24 µM |
| CCN(CC)CCN1CC(O)=C(c2nc(-c3ccc(Cl)cc3)cs2)C1=N | 17.8 µM | 3.62 µM |
